Patent publication US20260146035A1, “FUSED BICYCLIC COMPOUNDS AND THEIR USE AS MER AND AXL INHIBITORS” (DONG-A ST CO., LTD., priority 2022, published 2026)

Key:
human TYRO3 (455-end) = target: T1, human TYRO3 (455-end) (Homo sapiens, UniProt Q06418); test: HTRF kinase activity biochemical assay, TYRO3; settings: 10 μM ATP, 30 minutes pre-incubation; read-out: HTRF TYRO IC50
T1 construct: TYRO3 (455-end); purchased SignalChem, Canada
T1 sequence (Q06418 455-890 limits assumed): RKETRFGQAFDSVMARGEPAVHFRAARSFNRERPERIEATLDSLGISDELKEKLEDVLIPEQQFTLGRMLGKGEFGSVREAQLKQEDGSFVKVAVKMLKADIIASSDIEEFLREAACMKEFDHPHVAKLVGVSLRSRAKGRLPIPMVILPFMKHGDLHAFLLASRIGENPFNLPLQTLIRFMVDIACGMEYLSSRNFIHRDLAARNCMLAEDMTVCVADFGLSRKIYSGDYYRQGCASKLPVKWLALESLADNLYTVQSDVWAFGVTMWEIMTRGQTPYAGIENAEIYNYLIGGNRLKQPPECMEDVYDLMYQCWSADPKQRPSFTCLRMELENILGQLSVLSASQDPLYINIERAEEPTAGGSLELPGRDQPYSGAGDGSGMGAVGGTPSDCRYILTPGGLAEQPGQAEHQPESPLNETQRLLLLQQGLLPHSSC

human MER (528-end) = target: T2, human MER (528-end) (Homo sapiens, UniProt Q12866); test: HTRF kinase activity biochemical assay, MER; settings: 10 μM ATP, 30 minutes pre-incubation; read-out: HTRF MERTK IC50
T2 construct: human MER (528-end); purchased Camnabio, Japan
T2 sequence (Q12866 528-999 limits assumed): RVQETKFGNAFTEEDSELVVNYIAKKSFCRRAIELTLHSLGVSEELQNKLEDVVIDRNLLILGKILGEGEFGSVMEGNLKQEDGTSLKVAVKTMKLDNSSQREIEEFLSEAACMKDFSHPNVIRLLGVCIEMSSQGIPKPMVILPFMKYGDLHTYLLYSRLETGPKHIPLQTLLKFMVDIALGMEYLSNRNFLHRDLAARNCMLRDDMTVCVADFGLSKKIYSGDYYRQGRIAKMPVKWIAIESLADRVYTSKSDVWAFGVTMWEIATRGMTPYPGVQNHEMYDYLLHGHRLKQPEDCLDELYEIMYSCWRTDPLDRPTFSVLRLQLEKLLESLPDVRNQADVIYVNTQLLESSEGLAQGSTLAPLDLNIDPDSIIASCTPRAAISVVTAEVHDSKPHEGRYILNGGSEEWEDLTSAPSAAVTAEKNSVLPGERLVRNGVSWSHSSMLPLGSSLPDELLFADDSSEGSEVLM

human AXL (473-end) = target: T3, human AXL (473-end) (Homo sapiens, UniProt P30530); test: HTRF kinase activity biochemical assay, AXL; settings: 10 μM ATP, 30 minutes pre-incubation
T3 construct: human AXL (473-end); purchased SignalChem, Canada
T3 sequence (P30530 473-894 limits assumed): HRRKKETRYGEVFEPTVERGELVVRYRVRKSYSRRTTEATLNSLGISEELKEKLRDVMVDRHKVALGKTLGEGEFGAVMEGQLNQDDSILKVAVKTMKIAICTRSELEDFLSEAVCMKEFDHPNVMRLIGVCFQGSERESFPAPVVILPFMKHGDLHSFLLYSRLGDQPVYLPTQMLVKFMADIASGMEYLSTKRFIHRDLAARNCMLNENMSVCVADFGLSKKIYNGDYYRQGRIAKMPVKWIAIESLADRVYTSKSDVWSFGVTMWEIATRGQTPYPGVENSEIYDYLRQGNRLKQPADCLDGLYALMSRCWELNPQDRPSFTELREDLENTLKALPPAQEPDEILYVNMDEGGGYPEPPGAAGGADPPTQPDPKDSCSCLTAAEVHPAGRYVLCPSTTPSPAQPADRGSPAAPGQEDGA

| SMILES | IC50 (human TYRO3 (455-end)) | IC50 (human MER (528-end)) | IC50 (human AXL (473-end)) |
| --- | --- | --- | --- |
| CN(C)CCn1ccc2cc(-c3ccc(CO[C@H]4CCC[C@@H]4NC(=O)c4cc(-c5cnn(C)c5)cnc4N)cc3)ccc21 [Example 70, 2-amino-N-{(1S,2S)-2-[(4-{1-[2-(dimethylamino)ethyl]-1H-indol-5-yl}phenyl)methoxy]cyclopentyl}-5-(1-methyl-1H-pyrazol-4-yl)pyridine-3-carboxamide] | 100 to 1000 nM | < 10 nM | < 10 nM |
| CC1(C)CC(N2CCN(C(CO)CO)CC2)c2ccc(-c3ccc(CO[C@H]4CCC[C@@H]4NC(=O)c4cc(-c5cccnc5F)cnc4N)cc3)cc21 (stereo partly drawn) [Example 140, 6-amino-N-{(1S,2S)-2-[(4-{1-[4-(1,3-dihydroxypropan-2-yl)piperazin-1-yl]-3,3-dimethyl-2,3-dihydro-1H-inden-5-yl}phenyl)methoxy]cyclopentyl}-2′-fluoro[3,3′-bipyridine]-5-carboxamide] | 100 to 1000 nM | < 10 nM | < 10 nM |
| Cc1nn(C)cc1-c1cnc(N)c(C(=O)N[C@H]2COC[C@@H]2OCc2ccc(-c3ccc4c(c3)C(C)(C)CN4C3CCN(CCO)CC3)cc2)c1 [Example 42, 2-amino-5-(1,3-dimethyl-1H-pyrazol-4-yl)-N-{(3S,4R)-4-[(4-{1-[1-(2-hydroxyethyl)piperidin-4-yl]-3,3-dimethyl-2,3-dihydro-1H-indol-5-yl}phenyl)methoxy]oxolan-3-yl}pyridine-3-carboxamide] | 10 to 100 nM | < 10 nM | < 10 nM |
| Cn1cc(-c2cnc(N)c(C(=O)N[C@H]3CCC[C@@H]3OCc3ccc(-c4ccc5[nH]ccc5c4)cc3)c2)cn1 [Example 68, 2-amino-N-[(1S,2S)-2-{[4-(1H-indol-5-yl)phenyl]methoxy}cyclopentyl]-5-(1-methyl-1H-pyrazol-4-yl)pyridine-3-carboxamide] | 100 to 1000 nM | < 10 nM | < 10 nM |
| CN1C(=O)Cc2cc(-c3ccc(CO[C@H]4CCC[C@@H]4NC(=O)c4cc(-c5cnn(C)c5)cnc4N)cc3)ccc21 [Example 3, 2-amino-N-[(1S,2S)-2-{[4-(1-methyl-2-oxo-2,3-dihydro-1H-indol-5-yl)phenyl]methoxy}cyclopentyl]-5-(1-methyl-1H-pyrazol-4-yl)pyridine-3-carboxamide] | > 1000 nM | 10 to 100 nM | 100 to 1000 nM |
| Cc1cn(C)c2ccc(-c3ccc(CO[C@H]4CCC[C@@H]4NC(=O)c4cc(-c5cnn(C)c5)cnc4N)cc3)cc12 [Example 54, 2-amino-N-[(1S,2S)-2-{[4-(1,3-dimethyl-1H-indol-5-yl)phenyl]methoxy}cyclopentyl]-5-(1-methyl-1H-pyrazol-4-yl)pyridine-3-carboxamide] | > 1000 nM | 10 to 100 nM | 10 to 100 nM |
| Nc1ncc(-c2ccc(F)nc2)cc1C(=O)N[C@H]1CCC[C@@H]1OCc1ccc(-c2ccc3c(ccn3C3CCN(CCO)CC3)c2)cc1 [Example 22, 6-amino-6′-fluoro-N-{(1S,2S)-2-[(4-{1-[1-(2-hydroxyethyl)piperidin-4-yl]-1H-indol-5-yl}phenyl)methoxy]cyclopentyl}[3,3′-bipyridine]-5-carboxamide] | 100 to 1000 nM | < 10 nM | 10 to 100 nM |

The remaining lines, values ahead:

| IC50 (human TYRO3 (455-end)) | IC50 (human MER (528-end)) | IC50 (human AXL (473-end)) | SMILES |
| --- | --- | --- | --- |
| 10 to 100 nM | < 10 nM | < 10 nM | Cn1cc(-c2cnc(N)c(C(=O)N[C@H]3CCC[C@@H]3OCc3ccc(-c4ccc5c(c4)C(C)(C)CN5C4CCN(CCO)CC4)cc3)c2)cn1 [Example 13, 2-amino-N-{(1S,2S)-2-[(4-{1-[1-(2-hydroxyethyl)piperidin-4-yl]-3,3-dimethyl-2,3-dihydro-1H-indol-5-yl}phenyl)methoxy]cyclopentyl}-5-(1-methyl-1H-pyrazol-4-yl)pyridine-3-carboxamide] |
| 100 to 1000 nM | < 10 nM | < 10 nM | Cn1cc(-c2cnc(N)c(C(=O)N[C@H]3CCC[C@@H]3OCc3ccc(-c4ccc5c(c4)CC(F)(F)C5N4CCN(CCO)CC4)cc3)c2)cn1 (stereo partly drawn) [Example 50, 2-amino-N-{(1S,2S)-2-[(4-{2,2-difluoro-1-[4-(2-hydroxyethyl)piperazin-1-yl]-2,3-dihydro-1H-inden-5-yl}phenyl)methoxy]cyclopentyl}-5-(1-methyl-1H-pyrazol-4-yl)pyridine-3-carboxamide] |
| > 1000 nM | < 10 nM | 10 to 100 nM | Nc1ncc(-c2ccc(F)nc2)cc1C(=O)N[C@H]1COC[C@@H]1OCc1ccc(-c2ccc3c(c2)CCC3N2CCN(CCO)CC2)cc1 (stereo partly drawn) [Example 20, 6-amino-6′-fluoro-N-{(3S,4R)-4-[(4-{1-[4-(2-hydroxyethyl)piperazin-1-yl]-2,3-dihydro-1H-inden-5-yl}phenyl)methoxy]oxolan-3-yl}[3,3′-bipyridine]-5-carboxamide] |
| > 1000 nM | < 10 nM | 10 to 100 nM | CN1CCC(C(=O)NC2Cc3ccc(-c4ccc(CO[C@H]5CCC[C@@H]5NC(=O)c5cc(-c6cnn(C)c6)cnc5N)cc4)cc3C2)CC1 (stereo partly drawn) [Example 10, 2-amino-N-{(1S,2S)-2-[(4-{2-[(1-methylpiperidine-4-carbonyl)amino]-2,3-dihydro-1H-inden-5-yl}phenyl)methoxy]cyclopentyl}-5-(1-methyl-1H-pyrazol-4-yl)pyridine-3-carboxamide] |
| > 1000 nM | < 10 nM | < 10 nM | Cn1cc(-c2cnc(N)c(C(=O)N[C@H]3CCC[C@@H]3OCc3ccc(-c4ccc5c(c4)CCC5N4CCN(CC5COC(C)(C)O5)CC4)cc3)c2)cn1 (stereo partly drawn) [Example 79, 2-amino-N-[(1S,2S)-2-{[4-(1-{4-[(2,2-dimethyl-1,3-dioxolan-4-yl)methyl]piperazin-1-yl}-2,3-dihydro-1H-inden-5-yl)phenyl]methoxy}cyclopentyl]-5-(1-methyl-1H-pyrazol-4-yl)pyridine-3-carboxamide] |
| 100 to 1000 nM | < 10 nM | < 10 nM | Cn1ccc(-c2cnc(N)c(C(=O)N[C@H]3CCC[C@@H]3OCc3ccc(-c4ccc5c(c4)CC[C@@H]5N4CCN(CC(O)CO)CC4)cc3)c2)cc1=O (stereo partly drawn) [Example 99, 6-amino-N-{(1S,2S)-2-[(4-{(1S)-1-[4-(2,3-dihydroxypropyl)piperazin-1-yl]-2,3-dihydro-1H-inden-5-yl}phenyl)methoxy]cyclopentyl}-1′-methyl-2′-oxo-1′,2′-dihydro[3,4′-bipyridine]-5-carboxamide] |
| 100 to 1000 nM | < 10 nM | < 10 nM | COc1c(-c2cnn(C)c2)cnc(N)c1C(=O)N[C@H]1CCC[C@@H]1OCc1ccc(-c2ccc3c(c2)CC[C@@H]3N2CCN(CCO)CC2)cc1 [Example 155, 2-amino-N-{(1S,2S)-2-[(4-{(1S)-1-[4-(2-hydroxyethyl)piperazin-1-yl]-2,3-dihydro-1H-inden-5-yl}phenyl)methoxy]cyclopentyl}-4-methoxy-5-(1-methyl-1H-pyrazol-4-yl)pyridine-3-carboxamide] |
| 10 to 100 nM | < 10 nM | < 10 nM | Cc1csc(-c2cnc(N)c(C(=O)N[C@H]3CCC[C@@H]3OCc3ccc(-c4ccc5c(c4)CC[C@@H]5N4CCN(CCO)CC4)cc3)c2)n1 [Example 181, 2-amino-N-{(1S,2S)-2-[(4-{(1S)-1-[4-(2-hydroxyethyl)piperazin-1-yl]-2,3-dihydro-1H-inden-5-yl}phenyl)methoxy]cyclopentyl}-5-(4-methyl-1,3-thiazol-2-yl)pyridine-3-carboxamide] |
| 10 to 100 nM | < 10 nM | < 10 nM | Nc1ncc(-c2ccns2)cc1C(=O)N[C@H]1CCC[C@@H]1OCc1ccc(-c2ccc3c(c2)CC[C@@H]3N2CCN(CCO)CC2)cc1 [Example 174, 2-amino-N-{(1S,2S)-2-[(4-{(1S)-1-[4-(2-hydroxyethyl)piperazin-1-yl]-2,3-dihydro-1H-inden-5-yl}phenyl)methoxy]cyclopentyl}-5-(1,2-thiazol-5-yl)pyridine-3-carboxamide] |
